From patent US20260184669A1, “LIPID COMPOUND AND COMPOSITION FOR DELIVERY OF ACTIVE SUBSTANCE” (KOREA RESEARCH INSTIUTE OF BIOSCIENCE AND BIOTECHNOLOGY, priority 2022, published 2026)

Key:
[1] = Stability of mRNA-LNPs according to storage temperature and duration; type: physicochemical; settings: for Normalized EE % D-1 / Size (nm) D-1 / PDI D-1: day 1; for Normalized EE % D-7 / PDI D-7 / Size (nm) D-7: day 7; for Normalized EE % D-30 / PDI D-30 / Size (nm) D-30: day 30
Method: Stability of fLuc mRNA-LNPs produced using various ionizable lipids according to the method of Example 27, was assessed by storing the LNPs at 4° C. and 25° C. At 1, 7, and 30 days post-manufacture, the size, PDI, and encapsulation efficiency (EE) of each mRNA-LNPs samples were measured using the methods described in Experimental Examples 2 and 3.

[2] = Size, polydispersity index and surface charge of mRNA-LNP (Malvern Zetasizer Nano ZS90); type: physicochemical; settings: for PDI / size (nm) Number: mRNA-LNP made with the ionizable lipid at its optimal formulation (Table 2); for size (nm) Number: diluted with PBS to 1 μg/mL mRNA; for Zeta (mV): surface charge of mRNA-LNP made with the ionizable lipid at its optimal formulation (Table 2)
Method: Each mRNA-LNPs produced in Example 27 was diluted with PBS to a final mRNA concentration of 1 μg/mL. The size, polydispersity index (PDI), and surface charge of the mRNA-LNPs were then measured using a Malvern Zetasizer Nano ZS90 (Malvern Instruments, UK).
For particles intended for systemic administration, such as via blood vessels, the particle size must be less than 200 nm in order to pass through the endothelial capillaries of the liver. In addition, the size distribution is considered uniform only when the PDI is 0.3 or less, which enables consistent and efficient therapeutic effects (Non-patent document 3 [Danaei, M. et al). Pharmaceutics 2018, 10, 57]).

female C57BL/6 mice = experiment: Protein expression efficiency of fLuc mRNA-LNPs after intramuscular injection (IVIS whole-body luminescence); type: in vivo; settings: for Total flux 1 hour / Total flux 3 hours / Total flux 6 hours / Total flux 48 hours / Total flux 72 hours / Total flux: fLuc mRNA-LNP, intramuscular injection, luminescence at injection site, mice; for Total flux 1 hour: 1 hour after administration; for Total flux 3 hours: 3 hours after administration; for Total flux 6 hours: 6 hours after administration; for Total flux 48 hours: 48 hours after administration; for Total flux 72 hours: 72 hours after administration; for Total flux: after administration; for Fold increase in total flux at 3 h, MC3: relative to control LNP formulated with MC3; for Fold increase in total flux at 3 h, MC3 / Fold increase in total flux at 3 h, SM-102: 3 hours after intramuscular injection; for Fold increase in total flux at 3 h, SM-102: relative to control LNP formulated with SM-102
Method: fLuc mRNA-LNPs formulated using various ionizable lipids were prepared according to the method described in Example 27 and administered in vivo via intramuscular (I. M.) or intravenous (IV.) injection to compare the resulting protein expression efficiency in vivo. As a control, EGFP mRNA-LNPs formulated with commercially available ionizable lipids MC3 or SM-102 were used. All mRNA-LNPs were administered at equal mRNA doses per body weight across different concentration groups (n≥4).
Specifically, the dose of mRNA-LNPs was adjusted to 0.1-0.5 mg/kg of body weight, and the formulation was administered via I.M. or I.V. injection to female C57BL/6 mice (6-10 weeks old, Orient Bio, Korea) Subsequently, […], whole-body luminescence images were acquired using an in vivo imaging system (IVIS Lumina III, PerkinElmer, Walzam, MA, USA). To assess protein expression levels, 200 μL of D-luciferin (15 mg/mL) was administered via intraperitoneal (I.P.) injection 10 minutes prior to imaging. During image acquisition, the animals were anesthetized by inhalation of 3% isoflurane in 97% medical grade oxygen. In addition, the acquired luminescence images were quantitatively analyzed using imaging software (Living Image Software Version 4.4; PerkinElmer, USA).
After intramuscular injection of the fLuc mRNA-LNPs, the luminescence intensity at the injection site was measured over time.
Furthermore, the luminescence intensity at the injection site 3 hours after intramuscular injection was measured, and the relative protein expression efficiency was compared to that of control LNPs formulated with MC3 or SM-102.

[3] = mRNA encapsulation efficiency (Quant-IT RiboGreen RNA assay); type: physicochemical; settings: mRNA encapsulation efficiency of mRNA-LNP made with the ionizable lipid; average of two measurements
Method: The mRNA encapsulation efficiency (EE, %) of LNPs containing mRNA was measured using the Quant-IT™ RiboGreen® RNA assay kit (Invitrogen, USA).
The diluted samples were added to each well of a 96-well plate. Group A (without Triton X-100) was supplemented with 50 μL of 1×TE buffer, while Group B (with Triton X-100) was supplemented with 50 μL of 1×TE buffer containing 2% Triton-X 100. To release the encapsulated mRNA, the LNPs were treated with Triton-X 100 and incubated at 37° C. for 10 minutes. Subsequently, 100 μL of ribogreen reagent was added to each well. The fluorescence intensities of Group A and Group B were measured using a multi-plate reader (λex 480 nm, λem 520 nm), and mRNA encapsulation efficiency (%) was calculated using Equation 1 below. The encapsulation efficiency for each LNP was determined as the average of two independent measurements.

CCCCCCCCCCCOC(=O)CCCCCN(CCCCCCCC(=O)OC(CCCCCCCC)CCCCCCCC)CC(O)CCCCNC(=O)c1c[nH]cn1 (stereo not shown) [Compound 34, Heptadecan-9-yl 8-((2-hydroxy-6-(1H-imidazole-4-carboxamido)hexyl)(6-oxo-6-(undecyloxy)hexyl)amino)octanoate]
Normalized EE % D-1 ([1]; fLuc mRNA-LNP stored at 4° C.): 94.0% | Size (nm) D-1 ([1]; fLuc mRNA-LNP stored at 4° C.): 116.7 nm | Normalized EE % D-7 ([1]; fLuc mRNA-LNP stored at 4° C.): 92.9% | PDI D-7 ([1]; fLuc mRNA-LNP stored at 4° C.): 0.126 | Size (nm) D-7 ([1]; fLuc mRNA-LNP stored at 4° C.): 121.7 nm | Normalized EE % D-30 ([1]; fLuc mRNA-LNP stored at 4° C.): 91.4% | PDI D-30 ([1]; fLuc mRNA-LNP stored at 4° C.): 0.079 | Size (nm) D-30 ([1]; fLuc mRNA-LNP stored at 4° C.): 164.4 nm | Normalized EE % D-1 ([1]; fLuc mRNA-LNP stored at 25° C.): 94.0% | PDI D-1 ([1]; fLuc mRNA-LNP stored at 25° C.): 0.143 | Size (nm) D-1 ([1]; fLuc mRNA-LNP stored at 25° C.): 116.7 nm | Normalized EE % D-7 ([1]; fLuc mRNA-LNP stored at 25° C.): 90.9% | PDI D-7 ([1]; fLuc mRNA-LNP stored at 25° C.): 0.139 | Size (nm) D-7 ([1]; fLuc mRNA-LNP stored at 25° C.): 129.6 nm | Normalized EE % D-30 ([1]; fLuc mRNA-LNP stored at 25° C.): 89.3% | PDI D-30 ([1]; fLuc mRNA-LNP stored at 25° C.): 0.132 | Size (nm) D-30 ([1]; fLuc mRNA-LNP stored at 25° C.): 164.4 nm | PDI [2]: 0.143 | size (nm) Number [2]: 117 nm | Zeta (mV) [2]: −1.50 mV | Total flux 1 hour (female C57BL/6 mice): 6.37E+06 | Total flux 3 hours (female C57BL/6 mice): 3.60E+07 | Total flux 6 hours (female C57BL/6 mice): 1.70E+07 | Total flux 48 hours (female C57BL/6 mice): 1.11E+06 | Total flux 72 hours (female C57BL/6 mice): 7.64E+05 | Total flux (female C57BL/6 mice): 2.79E+06 | Fold increase in total flux at 3 h, MC3 (female C57BL/6 mice): 2.91 | Fold increase in total flux at 3 h, SM-102 (female C57BL/6 mice): 0.32 | EE (%) [3]: 94%

CCCCCCCCCCCOC(=O)CCCCCN(CCCCCCCC(=O)OC(CCCCCCCC)CCCCCCCC)CC(O)CCCCNC(=O)c1ncc[nH]1 (stereo not shown) [Compound 33, Heptadecan-9-yl 8-((2-hydroxy-6-(1H-imidazole-2-carboxamido)hexyl)(6-oxo-6-(undecyloxy)hexyl)amino)octanoate]
Normalized EE % D-1 ([1]; fLuc mRNA-LNP stored at 4° C.): 90.0% | Size (nm) D-1 ([1]; fLuc mRNA-LNP stored at 4° C.): 112.8 nm | Normalized EE % D-7 ([1]; fLuc mRNA-LNP stored at 4° C.): 83.3% | PDI D-7 ([1]; fLuc mRNA-LNP stored at 4° C.): 0.079 | Size (nm) D-7 ([1]; fLuc mRNA-LNP stored at 4° C.): 120.3 nm | Normalized EE % D-30 ([1]; fLuc mRNA-LNP stored at 4° C.): 89.3% | PDI D-30 ([1]; fLuc mRNA-LNP stored at 4° C.): 0.113 | Size (nm) D-30 ([1]; fLuc mRNA-LNP stored at 4° C.): 115.6 nm | Normalized EE % D-1 ([1]; fLuc mRNA-LNP stored at 25° C.): 90.0% | PDI D-1 ([1]; fLuc mRNA-LNP stored at 25° C.): 0.145 | Size (nm) D-1 ([1]; fLuc mRNA-LNP stored at 25° C.): 112.8 nm | Normalized EE % D-7 ([1]; fLuc mRNA-LNP stored at 25° C.): 82.1% | PDI D-7 ([1]; fLuc mRNA-LNP stored at 25° C.): 0.133 | Size (nm) D-7 ([1]; fLuc mRNA-LNP stored at 25° C.): 122.9 nm | Normalized EE % D-30 ([1]; fLuc mRNA-LNP stored at 25° C.): 87.2% | PDI D-30 ([1]; fLuc mRNA-LNP stored at 25° C.): 0.113 | Size (nm) D-30 ([1]; fLuc mRNA-LNP stored at 25° C.): 106.4 nm | PDI [2]: 0.145 | size (nm) Number [2]: 113 nm | Zeta (mV) [2]: −8.94 mV | Total flux 1 hour (female C57BL/6 mice): 1.80E+06 | Total flux 3 hours (female C57BL/6 mice): 1.17E+07 | Total flux 6 hours (female C57BL/6 mice): 1.26E+07 | Total flux 48 hours (female C57BL/6 mice): 4.56E+05 | Total flux 72 hours (female C57BL/6 mice): 4.96E+05 | Total flux (female C57BL/6 mice): 2.62E+06 | Fold increase in total flux at 3 h, MC3 (female C57BL/6 mice): 0.94 | Fold increase in total flux at 3 h, SM-102 (female C57BL/6 mice): 0.10 | EE (%) [3]: 90%
